Assay results from patent US20250333701A1, “COMPOSITIONS AND METHODS FOR GENERATING HEMATOPOIETIC STEM CELLS (HSCS)” (Washington University, priority 2019, published 2025).
Entries after “also recorded” stand apart in the source; their conditions may differ.

How the values were obtained:
Assay type in all cases: cell-based, human
[1] = system: WNTd KDR+ CXCR4neg mesoderm; assay: Definitive hematopoietic development / HE specification from isolated day 3 WNTd KDR+ CXCR4neg mesoderm
Procedure: The hESC lines H1 and H9, and human iPSC1 were maintained on irradiated mouse embryonic fibroblasts in hESC media as described previously (Sturgeon, C. M., et al. Nat Biotechnol 32, 554-561, (2014); Thomson, J. A. et al. Science 282, 1145-1147 (1998); Dege, C. et al., J Vis Exp, (2017)). For differentiation, hPSC were cultured on Matrigel-coated plasticware (BD Biosciences, Bedford, MA) for 24 hours, followed by embryoid body (EB) generation, as described previously (Kennedy, M. et al. Cell Rep 2, 1722-1735, (2012); Dege, C. et al. J Vis Exp, (2017); Ditadi, A. et al. Methods 101, 65-72, (2016)). Briefly, hPSCs were dissociated with brief trypsin-EDTA (0.05%) treatment, followed by scraping. Embryoid body (EB) aggregates were resuspended in SFD media34 supplemented with L-glutamine (2 mM), ascorbic acid (1 mM), monothioglycerol (MTG, 4×10^−4 M; Sigma), transferrin (150 μg/mL), and BMP-4 (10 ng/mL). 24 hours later, bFGF (5 ng/mL) was added. On the second day of differentiation, ACTIVIN A, SB-431542 (6 μM), CHIR99021 (3 μM), and/or IWP2 (3 μM) were added. On the third day, EBs were changed to StemPro-34 media supplemented as above, with bFGF (5 ng/mL) and VEGF (15 ng/mL) and treated with either 10 μM of the pan-ALDH inhibitor DEAB (4-Diethylaminobenzaldehyde, Sigma #D86256; “RA-independent”) or 5 μM retinol (ROH, Sigma #R7632; “RA-dependent”). On day 6, IL-6 (10 ng/mL), IGF-1 (25 ng/mL), IL-11 (5 ng/mL), SCF (50 ng/mL), EPO (2 U/mL final) with DEAB or ROH were added. HE was FACS-isolated for terminal assays on day 8 (DEAB) or day 10 (ROH). All differentiation cultures were maintained at 37° C. […]
(§1) CD34+CD43^neg hemogenic endothelium was isolated by FACS and allowed to undergo the endothelial-to-hematopoietic transition as described previously (Ditadi, A. et al., Nat Cell Biol 17, 580-591, (2015); Ditadi, A. et al., Methods 101, 65-72, (2016)). […] Hemato-endothelial cultures were subsequently harvested by trypsinization, and assessed for hematopoietic potential by Methocult in a 37° C. incubator, in a 5% CO2/air environment. […]

KDR+ CXCR4+ mesoderm = assay: Specification of definitive hemogenic endothelium (HE) and hematopoietic potential from isolated day 3 WNTd KDR+ CXCR4+ mesoderm; details: for hematopoietic potential of the CD34+ HE specified: retinol (5 μM) added on day 3 to isolated KDR+ CXCR4+ mesoderm
Procedure: The hESC lines H1 and H9, and human iPSC1 were maintained on irradiated mouse embryonic fibroblasts in hESC media as described previously (Sturgeon, C. M., et al. Nat Biotechnol 32, 554-561, (2014); Thomson, J. A. et al. Science 282, 1145-1147 (1998); Dege, C. et al., J Vis Exp, (2017)). For differentiation, hPSC were cultured on Matrigel-coated plasticware (BD Biosciences, Bedford, MA) for 24 hours, followed by embryoid body (EB) generation, as described previously (Kennedy, M. et al. Cell Rep 2, 1722-1735, (2012); Dege, C. et al. J Vis Exp, (2017); Ditadi, A. et al. Methods 101, 65-72, (2016)). Briefly, hPSCs were dissociated with brief trypsin-EDTA (0.05%) treatment, followed by scraping. Embryoid body (EB) aggregates were resuspended in SFD media34 supplemented with L-glutamine (2 mM), ascorbic acid (1 mM), monothioglycerol (MTG, 4×10^−4 M; Sigma), transferrin (150 μg/mL), and BMP-4 (10 ng/mL). 24 hours later, bFGF (5 ng/mL) was added. On the second day of differentiation, ACTIVIN A, SB-431542 (6 μM), CHIR99021 (3 μM), and/or IWP2 (3 μM) were added. On the third day, EBs were changed to StemPro-34 media supplemented as above, with bFGF (5 ng/mL) and VEGF (15 ng/mL) and treated with either 10 μM of the pan-ALDH inhibitor DEAB (4-Diethylaminobenzaldehyde, Sigma #D86256; “RA-independent”) or 5 μM retinol (ROH, Sigma #R7632; “RA-dependent”). On day 6, IL-6 (10 ng/mL), IGF-1 (25 ng/mL), IL-11 (5 ng/mL), SCF (50 ng/mL), EPO (2 U/mL final) with DEAB or ROH were added. HE was FACS-isolated for terminal assays on day 8 (DEAB) or day 10 (ROH). All differentiation cultures were maintained at 37° C. All embryoid bodies and mesodermal aggregates were cultured in a 5% CO2/5% 02/90% N2 environment. All recombinant factors are human and were purchased from Biotechne. Analysis of hematopoietic colony potential via Methocult (Stem Cell Technologies) was performed as described previously (Ditadi, A. et al. Nat Cell Biol 17, 580-591, (2015); Kennedy, M. et al. Cell Rep 2, 1722-1735, (2012)).
For isolation of mesodermal populations, day 3 of differentiation WNTd KDR+ CD235a^negCXCR4+/neg and WNTi KDR+ CD235a+ cells were FACS-isolated and reaggregated at 250,000 cells/mL in day 3 media, as above. Cultures were plated in 250 μL volumes in a 24 well low-adherence culture plate, and grown overnight in a 37° C. incubator, with a 5% CO2/5% 02/90% N2 environment. As specified, RA was manipulated with either 5 μM ROH or ATRA (Sigma #R2625), or 10 μM DEAB. On day 4, an additional 1 mL of RA-supplemented day 3 media was added to reaggregates. On day 6 of differentiation, CD34+ and CD43+ cells from WNTi cultures were FACS-isolated for terminal assays. WNTd cultures were fed as normally, but without additional RA manipulation. CD34+ cells were sorted from all WNTd populations on day 8 of differentiation.
CD34+CD43^neg hemogenic endothelium was isolated by FACS and allowed to undergo the endothelial-to-hematopoietic transition as described previously (Ditadi, A. et al., Nat Cell Biol 17, 580-591, (2015); Ditadi, A. et al., Methods 101, 65-72, (2016)). Briefly, cells (CD34+CD43^neg or CD34+CD43^negCD73^negCXCR4neg cells) were aggregated overnight at a density of 2×10^5 cells/mL in StemPro-34 media supplemented with L-glutamine (2 mM), ascorbic acid (1 mM), monothioglycerol (MTG, 4×10^−4 M; Sigma-Aldrich), holo-transferrin (150 μg/mL), TPO (30 ng/mL), IL-3 (30 ng/mL), SCF (100 ng/mL), IL-6 (10 ng/mL), IL-11 (5 ng/mL), IGF-1 (25 ng/mL), EPO (2 U/mL), VEGF (5 ng/mL), bFGF (5 ng/mL), BMP4 (10 ng/mL), FLT3L (10 ng/mL), and SHH (20 ng/mL). Aggregates were spotted onto Matrigel-coated plasticware and were cultured for additional 3 or 9 days for WNTi and WNTd cultures, respectively. Cultures were maintained in a 37° C. incubator, in a 5% CO2/5% 02/90% N2 environment. Hemato-endothelial cultures were subsequently harvested by trypsinization, and assessed for hematopoietic potential by Methocult in a 37° C. incubator, in a 5% CO2/air environment. […]

WNTi CD235a+ mesoderm = assay: Extra-embryonic-like HE specification from isolated day 3 WNTi CD235a+ mesoderm
Procedure: (§2) The hESC lines H1 and H9, and human iPSC1 were maintained on irradiated mouse embryonic fibroblasts in hESC media as described previously (Sturgeon, C. M., et al. Nat Biotechnol 32, 554-561, (2014); Thomson, J. A. et al. Science 282, 1145-1147 (1998); Dege, C. et al., J Vis Exp, (2017)). For differentiation, hPSC were cultured on Matrigel-coated plasticware (BD Biosciences, Bedford, MA) for 24 hours, followed by embryoid body (EB) generation, as described previously (Kennedy, M. et al. Cell Rep 2, 1722-1735, (2012); Dege, C. et al. J Vis Exp, (2017); Ditadi, A. et al. Methods 101, 65-72, (2016)). Briefly, hPSCs were dissociated with brief trypsin-EDTA (0.05%) treatment, followed by scraping. Embryoid body (EB) aggregates were resuspended in SFD media34 supplemented with L-glutamine (2 mM), ascorbic acid (1 mM), monothioglycerol (MTG, 4×10^−4 M; Sigma), transferrin (150 μg/mL), and BMP-4 (10 ng/mL). 24 hours later, bFGF (5 ng/mL) was added. […]
as §1

HOXA genes = assay: HOXA gene expression in CXCR4+ mesoderm-derived CD34+ cells; details: after ROH treatment of CXCR4+ mesoderm on day 3
Procedure: Total RNA was prepared for whole-transcriptome sequencing using the Clontech SMARTer kit and was sequenced using an Illumina HiSeq 2500 with 1×50 single reads. Reads were aligned to hg19 using STAR and gene counts were obtained using Subread. TMM normalization and RPKM counts were calculated using EdgeR. Gene Set Enrichment Analysis (GSEA, version 4.0.1) and the Database for Annotation, Visualization, and Integrated discovery (DAVID, version 6.8) were used for differential expression analysis. Morpheus (software.broadinstitute.org/morpheus) was used to create heatmaps and perform hierarchical clustering (one minus the Pearson correlation with average linkage). Bulk RNA-seq comparison to scRNA-seq was performed using the SingleR package (version 1.0.1)(Aran, D. et al., Nat Immunol 20, 163-172, (2019)) implemented in R (version 3.5.1). qRT-PCR was performed as previously described (Sturgeon, C. M., et al., Nat Biotechnol 32, 554-561, (2014)). Briefly, total RNA was isolated with the RNAqueous RNA Isolation Kit (Ambion), followed by reverse transcription using random hexamers and Oligo (dT) with Superscript III Reverse Transcriptase (Invitrogen). Real-time quantitative PCR was performed on a StepOnePlus thermocycle (Applied Biosystems), using Power Green SYBR mix (Invitrogen). […] Gene expression was evaluated as DeltaCt relative to control (ACTB). […]

[2] = system: WNTd differentiation cultures; assay: Hematopoietic potential of HE from bulk WNTd differentiation cultures treated on day 3 (erythro-myeloid CFC, BFU-E globin); details: ROH on day 3 (RAd HE) compared with DEAB (RAi HE)
Procedure: as §2, with “scraping.” for “scraping. Embryoid body (EB) aggregates were resuspended in SFD media34 supplemented with L-glutamine (2 mM), ascorbic acid (1 mM), monothioglycerol (MTG, 4×10^−4 M; Sigma), transferrin (150 μg/mL), and BMP-4 (10 ng/mL). 24 hours later, bFGF (5 ng/mL) was added.”
as §1, with “environment. The experiments were performed in triplicate and the mean (±standard deviation) of the […] calculated for each data set is reported.” for “environment.”

With `CC1=C(/C=C/C(C)=C/C=C/C(C)=C/C(=O)O)C(C)(C)CCC1` [ATRA, all-trans-retinoic acid] the “effect on definitive hematopoietic development” value ([1]; 1-10 nM ATRA, WNTd KDR+ CXCR4neg mesoderm) was “no significant effect”, the “ATRA concentration repressive to HE specification” value ([1]; WNTd KDR+ CXCR4neg mesoderm) was > 100 nM and the “specification of definitive HE” value (KDR+ CXCR4+ mesoderm; 1 nM ATRA on isolated KDR+ CXCR4+ mesoderm, day 3 of differentiation) was “robust specification of definitive HE”. The “specification of HE” value (KDR+ CXCR4+ mesoderm; ATRA concentrations lower than 1 nM and higher than 10 nM, isolated KDR+ CXCR4+ mesoderm) was “failed to specify HE” and the “ATRA concentration repressive to extra-embryonic-like HE specification” value (WNTi CD235a+ mesoderm) was > 1 nM.

`CCN(CC)c1ccc(C=O)cc1` [DEAB, 4-Diethylaminobenzaldehyde] was tested, and the “impact on definitive hematopoietic specification” value ([1]; DEAB added to KDR+ CXCR4neg mesoderm differentiation, any stage) was “gives rise to definitive hematopoietic progenitors; also recorded: no negative impact” and the “hematopoietic potential of the CD34+ population obtained” value (KDR+ CXCR4+ mesoderm; DEAB (ALDH inhibitor) added to KDR+ CXCR4+ mesoderm culture) was “completely lacked any hematopoietic potential”.

For `CC1=C(/C=C/C(C)=C/C=C/C(C)=C/CO)C(C)(C)CCC1` [ROH, retinol], the HOXA gene expression (HOXA genes) was “elevated HOXA gene expression”, the “erythro-myeloid CFC potential of the resulting HE” value [2] was “significantly more erythro-myeloid CFC potential than RAi HE” and the “fetal (HBG) globin expression of resultant BFU-E” value [2] was “higher expression of fetal (HBG) globin”. For the same compound, the “stage at which ROH treatment results in specification of HE” value (KDR+ CXCR4+ mesoderm; ROH treatment on day 3, 4 or 5 of CXCR4+ mesoderm) was “on day 3 of differentiation, but not thereafter, resulted in the specification of HE”, the “hematopoietic potential of the CD34+ HE specified” value (KDR+ CXCR4+ mesoderm) was “harbored definitive erythroid, myeloid, and lymphoid hematopoietic potential” and the “hematopoietic potential of the CD34+ HE specified” value (KDR+ CXCR4+ mesoderm; listed as retinol) was “capable of erythro-myeloid-lymphoid multilineage hematopoiesis”.
